Assays:
HELP hiPSC-CMs = test: CardioExcyte 96 microelectrode array: base impedance and extracellular field potential; type: cell-based, human; details: fixed doses: 10 µM, crizotinib and ponatinib 3.16 µM; up to 24 h
Protocol: HELP hiPSC-CMs were seeded evenly into the 96-well microelectrode array, NSP-96 0.6mm sensor plate (Nanion technologies), at 50,000 cells per well. Measurements were started after 3-5 days of culture of these cells and until the impedance and the extracellular field potential are stable. Measurements were taken a few times before drug addition, and every 30~60 minutes after the drugs were added at 2x concentration. Values were averaged from 3 wells per group. Beat rate, amplitude of impedance, base impedance and FPDc were calculated by the Cardio Excyte Control 96 software package (Nanion Technologies).

Cor.4U hiPSC-CMs [1] = test: ATP level (CellTiter-Glo) in hiPSC-CMs; type: cell-based, human
Protocol: ATP content was measured using the CellTiter-Glo Luminescent Cell Viability Assay (Promega) following the manufacturer’s protocol. After adding CellTiter-Glo reagents and incubation, luminescence was quantified using a Synergy H1 plate reader (BioTek Instruments). ATP standards were prepared from 0.01 to 5 μM. For each drug, we fitted a four-parameter log-logistic model to calculate ED50 at day 5 (Fig S1). To rank the cellular toxicity of the eight TKIs (Fig 1T), we calculated (EC50-Cmax)/(EC50+Cmax) and arranged from the smallest to the biggest for increasing cellular toxicity.

ER stress genes in NRCMs = test: qRT-PCR of ER stress genes in NRCMs; type: cell-based, rat
Protocol: Rats were euthanized by decapitation and thoracic cavity was opened with scissors and hearts were popped out of the opening gently with fingers. Hearts were clipped and put in HBSS immediately; 20–40 hearts were collected into one sterile vial containing a magnetic stir bar and 1 mL digestive media made of 0.1% trypsin (Macklin) and 0.05% collagenase (Gibco) in HBSS. Hearts were minced until they were uniform in size. Digestive media was added to 10 mL for 40 hearts and stirred gently for 6 min. Supernatant was discarded and the digestion was repeated once; 10 mL digestive media was added and stirred gently for 10 min. The supernatant with cells were collected and the digestion and collection were repeated 4 times. Cells were centrifuged at 1200 rpm for 5 min, resuspended in media (Dulbecco’s modified Eagleʼs medium (Gibco)) with 10% fetal bovine serum (FBS; VISTECH), 1% penicillin–streptomycin, and 1% 0.1 M 5-bromo-2-deoxyuridine solution (Shanghai Yuanye) and filtered through a 40-μm cell strainer. Cells were seeded on a 100-mm plastic dish and cultured in a 5% CO2 incubator at 37 °C for 2 h to allow non-myocytes to adhere to the plate. The dish was swirled and media gently pipetted up and down to detach lightly attached cardiomyocytes. […] All drug treatments were performed after this media change.
RNA was isolated based on a standard protocol using TRIzol reagent (Vazyme). TRIzol (1ml per 1 well of a 6-well plate) was used to lyse cells and chloroform was added for RNA separation. Samples were shaked vigorously by hand for 15 seconds and incubated at room temperature for 2-3 minutes. RNA was present in the aqueous phase after centrifuge at 12000 x g for 15 minutes. Isopropyl alcohol was mixed to precipitate RNA from the aqueous phase. […] 1 μg total RNA was used for cDNA synthesis using a reverse transcription kit (Bioman). We then measured expression of genes of interest with SYBRR Green qPCR Mix (Bioman) using Applied Biosystems 7500 Quantitative PCR Instrument. Gene expression was normalized to the 18S ribosomal RNA expression and primers were listed in Primers Table.

NRCMs [2] = test: Seahorse assay: oxygen consumption and extracellular acidification; type: cell-based, rat; details: 24 h; fixed doses: 10 µM, crizotinib and ponatinib 3.16 µM
Protocol: Rats were euthanized by decapitation and thoracic cavity was opened with scissors and hearts were popped out of the opening gently with fingers. Hearts were clipped and put in HBSS immediately; 20–40 hearts were collected into one sterile vial containing a magnetic stir bar and 1 mL digestive media made of 0.1% trypsin (Macklin) and 0.05% collagenase (Gibco) in HBSS. Hearts were minced until they were uniform in size. Digestive media was added to 10 mL for 40 hearts and stirred gently for 6 min. Supernatant was discarded and the digestion was repeated once; 10 mL digestive media was added and stirred gently for 10 min. The supernatant with cells were collected and the digestion and collection were repeated 4 times. Cells were centrifuged at 1200 rpm for 5 min, resuspended in media (Dulbecco’s modified Eagleʼs medium (Gibco)) with 10% fetal bovine serum (FBS; VISTECH), 1% penicillin–streptomycin, and 1% 0.1 M 5-bromo-2-deoxyuridine solution (Shanghai Yuanye) and filtered through a 40-μm cell strainer. Cells were seeded on a 100-mm plastic dish and cultured in a 5% CO2 incubator at 37 °C for 2 h to allow non-myocytes to adhere to the plate. The dish was swirled and media gently pipetted up and down to detach lightly attached cardiomyocytes. The collected myocytes were seeded in the same media described before; 48 h after plating, medium was exchanged to fresh DMEM (Gibco) with or without 2% FBS. All drug treatments were performed after this media change.
NRCMs were seeded evenly into the Seahorse XF96 cell culture plates (Agilent) and cultured in DMEM high glucose with 2% FBS. About 2 hours before the test, cells were moved to a non-CO2 incubator at 37 ° C and incubated for 1 hour. 1 hour prior to the test, culture media was replaced with the Seahorse Basal DMEM at 37°C (with appropriate concentration of glucose, 4mM L-glutamine, 1 mM sodium pyruvate and 1% penicillin-streptomycin solution) and incubated in a non-CO2 incubator at 37°C for 1 hour. Drugs were prepared at 8x to 10x concentrations with the corresponding seahorse media as in each well and added into ports of Seahorse XF96 cartridge plates which have been hydrated overnight. XFe96 Extracellular Flux Analyzer (Agilent) was used to measure oxygen consumption rate and extracellular acidification rate of cells with different drug treatments.

Cor.4U hiPSC-CMs [3] = test: 3'DGE-UMI RNAseq transcriptome of hiPSC-CMs; details: high PC1 loadings; ponatinib at high dose
NRCMs [4] = test: Calcium staining with Calbryte 520 AM; type: cell-based, rat; details: 0.5 and 1 h; 10 µM afatinib, 10 µM sorafenib, 5.62 µM ponatinib
[5] = test system: Phospho-eIF2α, XBP1s, ATF6 (cleaved); test: Western blot of ER stress effectors in NRCMs; type: cell-based, rat
patients = details: ref Table S1, 2, 4, 26–36; cited from earlier work
NRCMs [6] = test: Lipid peroxidation by C11-bodipy 581/591 and flow cytometry
Protocol: (§1) For ROS assessment, cells were washed with PBS once and stained with 10μM H2DCFHDA (MCE) in phenol red-free DMEM (Procell) in a humid incubator with 5% CO2 at 37°C for 30 minutes. Cells were washed with PBS twice and dissociated to single cells before flow cytometry analysis at the FITC channel. For lipid peroxidation measurement, cells were washed with PBS once and stained with 2μM C11-bodipy^581/591 (Cayman) in phenol red-free DMEM (Procell) in a humid incubator with 5% CO2 at 37°C for 30 minutes. Cells were washed with PBS twice and dissociated to single cells before flow cytometry analysis at both the FITC and the PE channels. Fluorescence of the oxidized C11-bodipy were acquired through the FITC channel (Ex/Em=488/520nm) and that of the non-oxidized C11-bodipy through the PE channel (Ex/Em=555/624nm).

[7] = in vivo; cited from earlier work
NRCMs [8] = test: ROS by H2DCFDA staining and flow cytometry; details: 3 h; 10 µM afatinib, 10 µM sorafenib, 5.62 µM ponatinib
Protocol: as §1

[9] = Sprague-Dawley, rat, 24 h, 10 µM

EC50 on cells relative to Cmax in vivo (Cor.4U hiPSC-CMs [1]): ~ 60 folds
change in percent of cells with high lipid peroxidation (NRCMs [6]): increased slightly
level of lipid peroxidation, TKI alone (NRCMs [6]; [9]): 92.5%
level of lipid peroxidation, TKI with trolox (NRCMs [6]; [9]): 83%
increase in percent of ROS-high cells (NRCMs [8]): 14.1%
SMILES: CN(C)C/C=C/C(=O)Nc1cc2c(Nc3ccc(F)c(Cl)c3)ncnc2cc1O[C@H]1CCOC1 [afatinib]
effect on beat rate, contraction, base impedance and corrected field potential duration (HELP hiPSC-CMs): reduced beat rate and corrected field potential duration
effect on ATP levels (Cor.4U hiPSC-CMs [1]; 0.32 to 10 µM, day 1 to day 5): dose-dependent and time-dependent reduction in ATP levels
dose-dependent toxicity (ATP fold changes) (Cor.4U hiPSC-CMs [1]; day 1, different doses, RNAseq conditions): dose-dependent toxicity
time-dependent toxicity (ATP fold changes) (Cor.4U hiPSC-CMs [1]; fixed dose over 5 days, RNAseq conditions): increasing toxicity with treatment duration
temporal activation of ER stress genes, 72 versus 24 h (ER stress genes in NRCMs; afatinib 5.62 µM, sorafenib 3.16 μM, ponatinib 1.78 μM): higher expression of Atf4, but a lower expression of Xbp1s and Atf6 at 72- than 24-h treatment
relative activation of the three UPR branches (ER stress genes in NRCMs; high-dose treatment, 24 h): activated the ATF4 axis more robustly than the XBP1s and the ATF6 axes
basal oxygen consumption rate (OCR) (NRCMs [2]): trend of inhibiting basal oxygen consumption rate (OCR)
expression of genes associated with ER stress (ATF4, NUPR1, DDIT3, TRIB3, CHAC1, SESN2, HERPUD1) (Cor.4U hiPSC-CMs [3]): upregulated
expression of genes related to cardiomyopathy and sarcomeric structure (MYH7, SYNPO2L, LDB3, ACTN2, MYLK3) (Cor.4U hiPSC-CMs [3]): downregulated
cytosolic calcium concentration (NRCMs [4]): did not cause any significant changes in calcium concentration
duration of activated eIF2α phosphorylation [5]: 12 h
level of cardiotoxicity based on literature reports (patients): low cardiotoxicity
Cmax [7]: 50 nM

Source: article PMC10108821, “Three tyrosine kinase inhibitors cause cardiotoxicity by inducing endoplasmic reticulum stress and inflammation in cardiomyocytes” (BMC Medicine, 2023)
